Where a SMILES comes first, the peptide text is derived from it. [ ]: non-standard residue; d: D form. The star is where a group is joined. pNA = O=[N+]([O-])c1ccc(N*)cc1; Tos = Cc1ccc(S(=O)(=O)*)cc1
Columns and labels:
[1] = target: T1, plasmin (pig) (Sus scrofa, UniProt P06867); conditions: prior substrate; enzyme not stated in the sentence (plasmin substrates); cited from earlier work
[2] = system: coagulation and linear dissolution related enzymes such as thrombin, Factor Xa, UK; conditions: in words, prior substrate; cited from earlier work
[3] = target: Plasmin (PL) (Sus scrofa, UniProt P06867); assay type: biochemical, Pig; conditions: TABLE 3, PNA substrates; So = 0.54 mmole/l; pH 7.4; 37° C., 10 minutes; 0.32 CU/ml
Plasmin (PL), sequence (P06867 97-809): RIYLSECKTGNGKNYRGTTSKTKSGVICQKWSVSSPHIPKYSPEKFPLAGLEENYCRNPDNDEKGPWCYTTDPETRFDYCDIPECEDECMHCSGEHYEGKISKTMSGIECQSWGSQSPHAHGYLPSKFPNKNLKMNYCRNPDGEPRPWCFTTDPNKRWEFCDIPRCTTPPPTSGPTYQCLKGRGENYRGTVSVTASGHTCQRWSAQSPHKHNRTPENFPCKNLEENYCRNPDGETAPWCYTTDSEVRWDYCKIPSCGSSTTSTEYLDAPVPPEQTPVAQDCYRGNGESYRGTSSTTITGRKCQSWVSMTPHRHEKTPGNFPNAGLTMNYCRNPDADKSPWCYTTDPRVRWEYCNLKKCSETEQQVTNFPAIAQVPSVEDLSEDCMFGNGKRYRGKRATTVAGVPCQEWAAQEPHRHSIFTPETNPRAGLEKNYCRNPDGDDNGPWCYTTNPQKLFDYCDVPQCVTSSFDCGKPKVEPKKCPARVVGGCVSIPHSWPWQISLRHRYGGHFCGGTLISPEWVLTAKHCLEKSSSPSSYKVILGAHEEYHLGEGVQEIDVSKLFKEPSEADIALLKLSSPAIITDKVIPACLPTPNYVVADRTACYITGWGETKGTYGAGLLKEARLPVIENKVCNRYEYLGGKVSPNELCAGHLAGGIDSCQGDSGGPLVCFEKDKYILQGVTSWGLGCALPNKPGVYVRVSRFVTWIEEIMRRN
Description: (§1) (1) Substrate solution concentration: 35 mmole/liter H2 O
(§2) (2) Buffer: Tris-hydrochloric acid buffer 50 mmole/l, NaCl 150 mmole/l (0.875%) was employed, and the pH for reaction was as follows depending on the enzyme.
Plasmin Pig Sigma (U.S.A.)
(§3) 0.5 ml of the buffer solution and 0.05 ml of the enzyme reagent were taken into a silicon-treated hard glass test tube or a plastic test tube, and preheated in a constant temperature bath at 37° C. for 5 minutes. Thereafter, 0.1 ml of the substrate solution was added to effect the enzymatic reaction at 37° C. for 10 minutes. Exactly after 10 minutes, 2.5 ml of the reaction terminating solution or the terminating and color developing reagent solution was added to terminate the enzymatic reaction, and after allowing to stand at 25° C. for 10 minutes, the absorbance at 405 nm or 645 nm was measured, in which [drawing 49]

[4] = target: Factor-Xa (FXa) (Bos taurus, UniProt P00743); assay type: biochemical, Cow; conditions: TABLE 3, PNA substrates; So = 0.54 mmole/l; pH 8.4; 37° C., 10 minutes; 0.4 U/ml
Factor-Xa (FXa), sequence (P00743 41-180): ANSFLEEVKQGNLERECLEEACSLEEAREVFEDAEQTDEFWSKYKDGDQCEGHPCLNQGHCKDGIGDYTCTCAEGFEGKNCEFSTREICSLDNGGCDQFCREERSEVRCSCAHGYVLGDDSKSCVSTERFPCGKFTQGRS
Factor-Xa (FXa), sequence (P00743 234-492): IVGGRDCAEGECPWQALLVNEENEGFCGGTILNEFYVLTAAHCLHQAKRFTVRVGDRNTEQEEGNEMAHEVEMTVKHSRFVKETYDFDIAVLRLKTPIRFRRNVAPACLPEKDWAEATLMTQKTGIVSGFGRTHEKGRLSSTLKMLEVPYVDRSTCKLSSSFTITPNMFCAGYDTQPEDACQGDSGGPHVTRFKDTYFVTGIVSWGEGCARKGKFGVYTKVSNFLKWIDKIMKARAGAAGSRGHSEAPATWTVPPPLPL
Description: (§4) The specificities of the novelly synthesized substrates were tested by reacting them with various enzymes respectively.
as §1, §2
(§5) 2,6-Xylenol 7.0 mmole+NaIO4 1.5 mmole/0.2N KOH
as §3

[5] = target: Urokinase (UK) (Homo sapiens, UniProt P00749); assay type: biochemical; conditions: TABLE 3, PNA substrates; So = 0.54 mmole/l; pH 8.2; 37° C., 10 minutes; 1000 IU/ml
[6] = target: T1, plasmin (pig); assay: Km, Vmax and Vmax/Km of substrates for plasmin (pig); assay type: biochemical, Porcine (pig); conditions: for Vmax (× 10^-6) [mole/min/Cu]: Porcine Plasmin, comparison table in description; for V/Km (× 10^-3) / Vmax (× 10^7): TABLE 1, PNA substrates, plasmin (pig); for Vmax (× 10^7): 405 nm; for Relative ratio: TABLE 1, V/Km of each sample divided by that of S2251
Excerpt: The substrates produced by the above examples were used in the measurement of plasmin as follows: The principle of this measurement comprises quantitatively analyzing the decomposition product p-nitroaniline or 3-carboxy-4-hydroxyaniline produced by the enzymatic hydrolysis, by measuring the absorbance (O.D.) directly at 405 nm in the case of p-nitroaniline and, in the case of the 3-carboxy-4-hydroxyaniline at 615 nm after condensing it with 2,6-xylenol in the presence of an oxidant to develop a color.
For the measurements of these constants, the following method is adopted:
The enzyme and the substrate are mixed in a buffer solution and subjected to the hydrolysis for 30 seconds. The concentration of the substrate [S] is changed and the enzyme concentration is maintained constant. By measuring the absorbance (O.D.), the initial velocity of the hydrolysis can be determined. Where 1/V is plotted as a function of 1/[S], there is obtained a Lineweaver and Burk's linea from which graph the Vmax and Km can be determined.

[7] = target: Kallikrein (KL) (Sus scrofa, UniProt P00752); assay type: biochemical, Pig; conditions: TABLE 3, PNA substrates; So = 0.54 mmole/l; pH 7.9; 37° C., 10 minutes; 1.0 BAEE-U/ml
Kallikrein (KL), sequence (P00752 8-246): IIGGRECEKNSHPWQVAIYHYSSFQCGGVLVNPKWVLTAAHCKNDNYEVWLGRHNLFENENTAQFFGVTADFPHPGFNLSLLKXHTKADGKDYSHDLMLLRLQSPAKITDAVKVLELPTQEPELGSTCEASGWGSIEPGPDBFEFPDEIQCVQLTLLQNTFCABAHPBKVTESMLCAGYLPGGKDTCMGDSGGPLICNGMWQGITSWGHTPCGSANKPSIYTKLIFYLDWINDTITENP
Description: as §4, §1, §2, §5, §3

[8] = target: Thrombin (TH) (Bos taurus, UniProt P00735); assay type: biochemical, Cow; conditions: TABLE 3, PNA substrates; So = 0.54 mmole/l; pH 8.4; 37° C., 10 minutes; 1.0 NIH/ml
Thrombin (TH), sequence (P00735 44-625): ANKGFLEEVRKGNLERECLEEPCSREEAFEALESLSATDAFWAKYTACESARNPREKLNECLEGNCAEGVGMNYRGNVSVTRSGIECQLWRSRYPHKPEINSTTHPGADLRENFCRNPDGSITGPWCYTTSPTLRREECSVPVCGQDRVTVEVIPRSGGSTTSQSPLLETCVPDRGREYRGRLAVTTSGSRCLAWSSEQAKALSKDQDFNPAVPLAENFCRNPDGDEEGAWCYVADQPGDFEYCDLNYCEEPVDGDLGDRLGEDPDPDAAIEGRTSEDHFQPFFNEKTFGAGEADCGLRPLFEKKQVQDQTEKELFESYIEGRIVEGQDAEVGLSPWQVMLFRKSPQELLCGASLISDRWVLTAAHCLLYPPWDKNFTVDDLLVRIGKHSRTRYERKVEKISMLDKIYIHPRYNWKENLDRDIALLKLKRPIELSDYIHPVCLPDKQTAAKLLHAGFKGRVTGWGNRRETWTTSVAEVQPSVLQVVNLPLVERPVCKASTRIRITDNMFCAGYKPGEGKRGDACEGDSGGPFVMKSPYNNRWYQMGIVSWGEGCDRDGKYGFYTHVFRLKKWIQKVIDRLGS
Description: as §4, §1, §2, §5, §3

T1 sequence (P06867 97-809): as the sequence (P06867 97-809) above

Compound	Km value compared with S-2251 (in words) [1]	reaction with coagulation and linear dissolution related enzymes such as thrombin, Factor Xa, UK [2]	Selectivity PL, absorbance (O.D.) at 405 nm [3] [O.D.]	Selectivity FXa, absorbance (O.D.) at 405 nm [4] [O.D.]	Selectivity UK, absorbance (O.D.) at 405 nm [5] [O.D.]	Vmax (× 10^-6) [mole/min/Cu] [6]	V/Km (× 10^-3) [6]	Vmax (× 10^7) [6]	Relative ratio [6]	Selectivity KL, absorbance (O.D.) at 405 nm [7] [O.D.]	Selectivity TH, absorbance (O.D.) at 405 nm [8] [O.D.]
Cc1ccc(S(=O)(=O)NCC(=O)N2CCC[C@H]2C(=O)N[C@@H](CCCCN)C(=O)Nc2ccc([N+](=O)[O-])cc2)cc1 [CHR-PL, Tos-Gly-Pro-Lys-PNA, reference compound] (HELM PEPTIDE1{[Cc1ccc(S(=O)(=O)[*:2])cc1].G.P.K.[O=[N+]([O-])c1ccc(N[*:1])cc1]}$$$$V2.0)	smaller than that of S-2251	considerably reacts	0.647	0.026	0.069	6.0 × 10^-6 mole/min/Cu	21.628 × 10^-3	60.067 × 10^7	1.889	0.004	0.057
Cc1ccc(S(=O)(=O)NCCCC[C@@H](N)C(=O)N[C@@H](CC(C)C)C(=O)N[C@@H](CCCCN)C(=O)Nc2ccc([N+](=O)[O-])cc2)cc1 [NPN-1, HD-Lys(Tos)LeuLysPNA.2HBr] (H-[dK](Tos)-Leu-Lys-pNA)			0.457	0.003	0.001			63.600 × 10^7	2.937	0.006	0
Cc1ccc(S(=O)(=O)NCCCC[C@@H](N)C(=O)N[C@@H](Cc2ccccc2)C(=O)N[C@@H](CCCCN)C(=O)Nc2ccc([N+](=O)[O-])cc2)cc1 [NPN-2, H-D-Lys(ToS)-Phe-Lys PNA.2HBr] (H-[dK](Tos)-Phe-Lys-pNA)			0.383	0.003	0.001	4.8 × 10^-6 mole/min/Cu	303.595 × 10^-3	47.968 × 10^7	26.517	0.004	0
NCCCC[C@H](NC(=O)[C@H](Cc1ccccc1)NC(=O)[C@H](N)CCC(=O)OC1CCCCC1)C(=O)Nc1ccc([N+](=O)[O-])cc1 [NPN-3, HD-Glu(CHN)PheLysPNA.2HBr] (HELM PEPTIDE1{[dE].F.K.[O=[N+]([O-])c1ccc(N[*:1])cc1]}|CHEM1{[C1CCC(O[*:1])CC1]}$PEPTIDE1,CHEM1,1:R3-1:R1$$$V2.0)			0.466	0.003	0.001			65.287 × 10^7	17.726	0.009	0
NCCCC[C@H](NC(=O)[C@H](Cc1ccccc1)NC(=O)[C@H](N)CCC(=O)NCCc1ccccc1)C(=O)Nc1ccc([N+](=O)[O-])cc1 [NPN-4] (HELM PEPTIDE1{[dE].F.K.[O=[N+]([O-])c1ccc(N[*:1])cc1]}|CHEM1{[c1ccc(CCN[*:1])cc1]}$PEPTIDE1,CHEM1,1:R3-1:R1$$$V2.0)			0.330	0.006	0.002			23.895 × 10^7	7.481	0.010	0.001
NCCCC[C@H](NC(=O)[C@H](Cc1ccccc1)NC(=O)[C@H](N)CCC(=O)NCCCc1ccccc1)C(=O)Nc1ccc([N+](=O)[O-])cc1 [NPN-5]			0.525	0.005	0.001			24.892 × 10^7	5.534	0.014	0
NCCCC[C@H](NC(=O)[C@H](Cc1ccccc1)NC(=O)[C@H](N)CCC(=O)NCCCCc1ccccc1)C(=O)Nc1ccc([N+](=O)[O-])cc1 [NPN-6]			0.646	0.003	0.012			28.209 × 10^7	5.427	0.018	0

Source: patent US4605614A, “Method for measuring plasmin” (Nitto Boseki Co., Ltd., priority 1981, dated 1986)
